How the values were obtained:
lung cancer and lymphoma = conditions: models of lung cancer and lymphoma; cited from earlier work
M6PR = M6PR expression by flow cytometry in different melanoma cell lines treated with dabrafenib; type: cell-based, human; conditions: 16 hr, 1 μM or 5 μM
Protocol: FIGS. 4A and 4B show WM35 cells resistant to PLX4720. […] Cell viability was measured in experimental replicates in MTT test after 2 and 4 days of treatment. Mean and SD are shown. FIG. 4B show the effect of Dabrafenib on the expression of M6PR. Indicated cells were treated with dabrafenib for 16 hr (1 μM or 5 μM) and M6PR expression was evaluated by flow cytometry. Mean and SD are shown. P values were calculated using two-sided Student's t-test; *-p<0.05; ** p<0.01; ***-p<0.001; ****-p<0.0001 from DMSO treated controls.
M6PR expression levels were detected by flow cytometry. Cells were incubated with Aqua dead cell staining kit (Thermo Fischer Scientific; Cat. no. L34957) for 15 min at 4° C., followed by staining with Alexa Fluor 647-conjugated mouse antibody specific for human IGF2R/M6PR (BD Biosciences; Cat. no. 565105; clone no. MEM-238) or its isotype (BD Biosciences; Cat. no. 557732; clone no. MOPC-21) at 4° C. for 20 minutes. Cells were fixed using 1% paraformaldehyde for 20 minutes at 4° C. before running them on LSR14. Data was analyzed by FlowJo software (Tree Star).

[1] = system: BRAFV600E mutant melanoma; conditions: patients with BRAFV600E mutant melanoma; cited from earlier work

Row | SMILES | effect on anti-tumor effect of immunotherapy (lung cancer and lymphoma) | expression of M6PR (M6PR) | clinical responses [1]
1 | N.N.[Cl][Pt][Cl] [cisplatin] | potentiate the anti-tumor effect of immunotherapy via up-regulation of M6PR on the tumor cell surface | – | –
2 | CC(C)(C)c1nc(-c2cccc(NS(=O)(=O)c3c(F)cccc3F)c2F)c(-c2ccnc(N)n2)s1 [dabrafenib] | – | substantial up-regulation of the receptor | impressive clinical responses
3 | COc1cccc2c1C(=O)c1c(O)c3c(c(O)c1C2=O)C[C@@](O)(C(=O)CO)C[C@@H]3O[C@H]1C[C@H](N)[C@H](O)[C@H](C)O1 [doxorubicin] | potentiate the anti-tumor effect of immunotherapy via up-regulation of M6PR on the tumor cell surface | – | –
4 | CC(=O)O[C@H]1C(=O)[C@@]2(C)[C@H]([C@H](OC(=O)c3ccccc3)[C@]3(O)C[C@H](OC(=O)[C@H](O)[C@@H](NC(=O)c4ccccc4)c4ccccc4)C(C)=C1C3(C)C)[C@]1(OC(C)=O)CO[C@@H]1C[C@@H]2O [paclitaxel] | potentiate the anti-tumor effect of immunotherapy via up-regulation of M6PR on the tumor cell surface | – | –

Source: patent US20220125839A1, “COMBINATION OF T-CELL THERAPY AND TARGETED THERAPY FOR TREATING THERAPY-RESISTANT MELANOMA WITH MUTATIONS IN THE BRAF GENE” (H. LEE MOFFITT CANCER CENTER AND RESEARCH INSTITUTE, INC., priority 2019, published 2022)
